According to ChEMBL document CHEMBL3217681, “Phosphofructokinase: structural and functional aspects and design of selective inhibitors” (Medchemcomm, 2012):

Biological target: T1, ATP-dependent 6-phosphofructokinase (Trypanosoma brucei, UniProt O15648)
T1 sequence (O15648 whole entry): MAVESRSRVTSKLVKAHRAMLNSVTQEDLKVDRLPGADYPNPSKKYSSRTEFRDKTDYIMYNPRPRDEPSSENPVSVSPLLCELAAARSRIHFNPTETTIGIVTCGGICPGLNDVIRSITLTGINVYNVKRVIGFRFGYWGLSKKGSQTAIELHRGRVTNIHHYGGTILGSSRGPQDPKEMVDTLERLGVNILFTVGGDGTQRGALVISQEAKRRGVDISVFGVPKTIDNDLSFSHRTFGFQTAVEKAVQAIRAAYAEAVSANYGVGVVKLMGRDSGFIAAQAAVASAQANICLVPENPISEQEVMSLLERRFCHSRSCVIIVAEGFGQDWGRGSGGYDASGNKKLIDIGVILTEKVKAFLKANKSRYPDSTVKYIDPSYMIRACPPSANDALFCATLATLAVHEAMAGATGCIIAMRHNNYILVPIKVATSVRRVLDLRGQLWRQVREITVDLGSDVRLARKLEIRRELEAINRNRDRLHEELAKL
Test: Inhibition of Trypanosoma brucei phosphofructokinase

Row | Structure (SMILES) | IC50 [µM]
1 | OC[C@H]1O[C@H](CNc2ccc3ccccc3c2)[C@@H](O)[C@@H]1O | 900
2 | OC[C@H]1O[C@H](CNc2ccc(Cl)c(Cl)c2)[C@@H](O)[C@@H]1O | 410
